From ChEMBL document CHEMBL5465560, “Selectivity Literature for EUbOPEN Chemogenomic Library” (2024) come the findings set out here.

One test addresses Activated CDC42 kinase 1 (Homo sapiens, UniProt Q07912). Nature of the test: Selectivity interaction (KinomeScan (DiscoverX)) EUB0000695a TNK2. The note with it: at 100 nM.
The target of test [1] is NT-3 growth factor receptor (Homo sapiens, UniProt Q16288). Nature of the test: Selectivity interaction (KinomeScan (DiscoverX)) EUB0000695a NTRK3. To be noted: at 100 nM.
Test [2] addresses T1, Phosphorylase b kinase gamma catalytic chain, liver/testis isoform (Homo sapiens) (UniProt P15735).
T1 sequence (whole entry): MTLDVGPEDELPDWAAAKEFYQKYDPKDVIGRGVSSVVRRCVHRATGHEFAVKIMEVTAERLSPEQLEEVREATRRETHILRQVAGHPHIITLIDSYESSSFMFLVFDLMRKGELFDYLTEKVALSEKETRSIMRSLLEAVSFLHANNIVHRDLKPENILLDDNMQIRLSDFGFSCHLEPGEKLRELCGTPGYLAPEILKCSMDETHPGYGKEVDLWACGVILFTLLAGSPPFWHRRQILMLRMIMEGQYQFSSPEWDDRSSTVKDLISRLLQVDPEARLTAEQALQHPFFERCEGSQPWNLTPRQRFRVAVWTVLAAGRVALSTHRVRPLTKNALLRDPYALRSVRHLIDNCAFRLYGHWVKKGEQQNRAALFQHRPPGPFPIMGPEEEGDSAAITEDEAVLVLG
The test can be described thus: Selectivity interaction (Kinase screening (Nanosyn)) EUB0000604a PHKG2.

In test [3] the target is eIF-2-alpha kinase GCN2 (Homo sapiens) (UniProt Q9P2K8). The test can be described thus: Selectivity interaction (ActivX KiNativ screen (kinase selectivity in THP-1 cell lysates)) EUB0000639a EIF2AK4. It counts as subcellular. To be noted: lysate, at 0.01 µM.
Test [4] deals with T2, Tyrosine-protein kinase ITK/TSK (Homo sapiens) (UniProt Q08881).
T2 sequence (whole entry): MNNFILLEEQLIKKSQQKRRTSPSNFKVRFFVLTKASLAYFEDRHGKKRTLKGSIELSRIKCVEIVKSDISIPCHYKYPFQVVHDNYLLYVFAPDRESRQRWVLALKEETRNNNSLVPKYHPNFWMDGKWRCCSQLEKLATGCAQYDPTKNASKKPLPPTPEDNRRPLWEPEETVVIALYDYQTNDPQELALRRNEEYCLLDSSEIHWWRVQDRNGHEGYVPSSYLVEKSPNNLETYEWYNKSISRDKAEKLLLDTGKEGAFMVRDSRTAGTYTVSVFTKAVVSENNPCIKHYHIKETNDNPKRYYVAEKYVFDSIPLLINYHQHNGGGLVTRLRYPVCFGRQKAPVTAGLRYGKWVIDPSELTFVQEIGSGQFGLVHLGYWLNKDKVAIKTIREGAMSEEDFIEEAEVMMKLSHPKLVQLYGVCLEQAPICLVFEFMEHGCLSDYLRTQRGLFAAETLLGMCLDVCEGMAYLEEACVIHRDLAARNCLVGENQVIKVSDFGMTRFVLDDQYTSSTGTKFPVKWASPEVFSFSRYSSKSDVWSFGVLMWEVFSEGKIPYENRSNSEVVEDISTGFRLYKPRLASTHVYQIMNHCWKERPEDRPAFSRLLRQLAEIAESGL
The test can be described thus: Selectivity interaction (KinomeScan (DiscoverX)) EUB0000045b ITK.

In test [5] the target is T3, Serine/threonine-protein kinase LATS2 (Homo sapiens) (UniProt Q9NRM7).
T3 sequence (whole entry): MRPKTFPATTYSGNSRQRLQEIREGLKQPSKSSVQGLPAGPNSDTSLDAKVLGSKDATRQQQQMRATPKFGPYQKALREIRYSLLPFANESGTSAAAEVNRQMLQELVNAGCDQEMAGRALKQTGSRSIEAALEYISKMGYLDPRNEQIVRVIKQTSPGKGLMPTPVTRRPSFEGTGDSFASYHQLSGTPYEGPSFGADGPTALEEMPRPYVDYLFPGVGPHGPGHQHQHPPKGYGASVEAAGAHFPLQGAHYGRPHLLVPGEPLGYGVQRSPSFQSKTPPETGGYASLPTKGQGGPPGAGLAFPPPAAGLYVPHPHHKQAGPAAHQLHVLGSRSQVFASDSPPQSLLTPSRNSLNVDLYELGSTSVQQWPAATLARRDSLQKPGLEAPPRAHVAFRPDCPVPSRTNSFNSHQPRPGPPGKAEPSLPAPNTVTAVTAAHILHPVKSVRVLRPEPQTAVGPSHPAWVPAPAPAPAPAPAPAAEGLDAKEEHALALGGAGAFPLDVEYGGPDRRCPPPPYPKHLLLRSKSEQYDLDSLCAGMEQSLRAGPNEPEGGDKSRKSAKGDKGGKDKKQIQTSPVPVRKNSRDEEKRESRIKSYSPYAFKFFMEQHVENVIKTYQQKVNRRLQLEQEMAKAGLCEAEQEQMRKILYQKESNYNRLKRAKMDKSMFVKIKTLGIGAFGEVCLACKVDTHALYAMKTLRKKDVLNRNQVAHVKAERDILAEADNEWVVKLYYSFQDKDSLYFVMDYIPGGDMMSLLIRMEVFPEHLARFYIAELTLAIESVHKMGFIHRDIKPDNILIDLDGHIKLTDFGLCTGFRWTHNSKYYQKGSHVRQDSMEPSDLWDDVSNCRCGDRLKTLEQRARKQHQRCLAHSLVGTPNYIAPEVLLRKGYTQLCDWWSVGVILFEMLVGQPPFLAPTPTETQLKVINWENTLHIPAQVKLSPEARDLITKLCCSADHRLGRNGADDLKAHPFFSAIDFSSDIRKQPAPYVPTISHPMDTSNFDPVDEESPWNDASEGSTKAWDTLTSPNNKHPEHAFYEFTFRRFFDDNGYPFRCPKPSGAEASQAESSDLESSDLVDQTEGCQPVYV
The test can be described thus: Selectivity interaction (KinomeScan (DiscoverX)) EUB0000655a LATS2. The note with it: at 10 µM.

Chain of NT-3 growth factor receptor (Q16288 32-839 limits assumed): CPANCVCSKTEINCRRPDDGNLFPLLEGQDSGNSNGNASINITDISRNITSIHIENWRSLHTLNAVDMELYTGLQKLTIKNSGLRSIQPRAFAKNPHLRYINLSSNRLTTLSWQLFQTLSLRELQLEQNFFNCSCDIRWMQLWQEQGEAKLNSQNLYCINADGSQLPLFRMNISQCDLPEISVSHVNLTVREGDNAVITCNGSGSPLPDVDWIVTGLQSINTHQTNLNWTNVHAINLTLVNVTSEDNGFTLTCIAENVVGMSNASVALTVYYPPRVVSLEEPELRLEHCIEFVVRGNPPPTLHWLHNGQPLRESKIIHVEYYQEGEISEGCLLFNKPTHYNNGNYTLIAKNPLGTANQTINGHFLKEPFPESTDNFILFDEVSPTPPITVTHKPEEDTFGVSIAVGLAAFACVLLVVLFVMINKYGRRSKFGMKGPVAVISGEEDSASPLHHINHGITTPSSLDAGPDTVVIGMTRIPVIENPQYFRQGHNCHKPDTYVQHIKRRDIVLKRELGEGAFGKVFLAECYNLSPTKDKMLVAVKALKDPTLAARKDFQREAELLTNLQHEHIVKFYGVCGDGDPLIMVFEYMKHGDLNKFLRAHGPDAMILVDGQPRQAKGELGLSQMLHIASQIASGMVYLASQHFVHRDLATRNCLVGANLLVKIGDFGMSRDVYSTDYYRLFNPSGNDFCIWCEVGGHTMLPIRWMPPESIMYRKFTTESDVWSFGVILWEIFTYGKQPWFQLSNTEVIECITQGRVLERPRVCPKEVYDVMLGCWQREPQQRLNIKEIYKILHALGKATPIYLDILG
Chain of eIF-2-alpha kinase GCN2 (Homo sapiens) (Q9P2K8 whole entry): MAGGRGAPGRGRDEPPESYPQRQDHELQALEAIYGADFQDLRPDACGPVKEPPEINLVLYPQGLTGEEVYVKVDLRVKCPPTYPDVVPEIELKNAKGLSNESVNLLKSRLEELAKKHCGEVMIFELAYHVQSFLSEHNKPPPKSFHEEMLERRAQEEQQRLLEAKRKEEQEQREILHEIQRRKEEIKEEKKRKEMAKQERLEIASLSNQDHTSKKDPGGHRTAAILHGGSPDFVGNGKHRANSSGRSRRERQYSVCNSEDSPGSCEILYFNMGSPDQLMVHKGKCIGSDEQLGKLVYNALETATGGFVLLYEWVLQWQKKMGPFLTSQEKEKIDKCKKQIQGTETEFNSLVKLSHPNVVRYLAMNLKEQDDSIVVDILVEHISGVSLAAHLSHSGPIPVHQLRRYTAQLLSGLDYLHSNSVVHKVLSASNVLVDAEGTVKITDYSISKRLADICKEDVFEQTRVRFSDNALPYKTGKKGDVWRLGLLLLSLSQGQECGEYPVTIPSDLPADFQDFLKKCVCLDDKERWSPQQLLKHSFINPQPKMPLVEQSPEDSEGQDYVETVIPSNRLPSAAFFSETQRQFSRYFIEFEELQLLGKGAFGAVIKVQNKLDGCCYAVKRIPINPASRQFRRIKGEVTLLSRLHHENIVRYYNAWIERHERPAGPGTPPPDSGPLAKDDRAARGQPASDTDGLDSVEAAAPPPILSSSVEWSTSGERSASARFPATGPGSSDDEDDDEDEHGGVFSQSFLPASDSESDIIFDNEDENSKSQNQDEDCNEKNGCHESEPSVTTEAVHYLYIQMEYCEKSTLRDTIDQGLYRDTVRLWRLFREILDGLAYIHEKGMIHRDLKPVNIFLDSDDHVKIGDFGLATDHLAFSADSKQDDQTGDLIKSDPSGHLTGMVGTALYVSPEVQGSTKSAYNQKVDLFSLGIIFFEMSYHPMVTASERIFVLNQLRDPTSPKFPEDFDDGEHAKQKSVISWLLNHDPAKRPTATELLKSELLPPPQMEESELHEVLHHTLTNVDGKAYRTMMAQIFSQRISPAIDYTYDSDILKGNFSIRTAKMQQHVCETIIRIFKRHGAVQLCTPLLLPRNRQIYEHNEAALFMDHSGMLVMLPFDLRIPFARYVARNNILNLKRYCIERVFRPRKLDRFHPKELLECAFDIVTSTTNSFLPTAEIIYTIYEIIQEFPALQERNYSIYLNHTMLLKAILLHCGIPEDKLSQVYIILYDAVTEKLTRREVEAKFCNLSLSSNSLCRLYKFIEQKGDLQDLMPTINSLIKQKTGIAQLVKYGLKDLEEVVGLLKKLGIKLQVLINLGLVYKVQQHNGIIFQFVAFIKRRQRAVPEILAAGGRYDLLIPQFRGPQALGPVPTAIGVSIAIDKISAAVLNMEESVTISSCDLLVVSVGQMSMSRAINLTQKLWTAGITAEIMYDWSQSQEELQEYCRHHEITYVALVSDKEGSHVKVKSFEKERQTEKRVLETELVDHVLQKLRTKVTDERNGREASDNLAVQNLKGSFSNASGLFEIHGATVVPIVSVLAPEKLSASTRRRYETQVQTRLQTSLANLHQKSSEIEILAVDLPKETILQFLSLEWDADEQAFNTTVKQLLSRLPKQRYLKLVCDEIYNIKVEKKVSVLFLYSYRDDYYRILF
Chain of Activated CDC42 kinase 1 (Q07912 whole entry, looked up): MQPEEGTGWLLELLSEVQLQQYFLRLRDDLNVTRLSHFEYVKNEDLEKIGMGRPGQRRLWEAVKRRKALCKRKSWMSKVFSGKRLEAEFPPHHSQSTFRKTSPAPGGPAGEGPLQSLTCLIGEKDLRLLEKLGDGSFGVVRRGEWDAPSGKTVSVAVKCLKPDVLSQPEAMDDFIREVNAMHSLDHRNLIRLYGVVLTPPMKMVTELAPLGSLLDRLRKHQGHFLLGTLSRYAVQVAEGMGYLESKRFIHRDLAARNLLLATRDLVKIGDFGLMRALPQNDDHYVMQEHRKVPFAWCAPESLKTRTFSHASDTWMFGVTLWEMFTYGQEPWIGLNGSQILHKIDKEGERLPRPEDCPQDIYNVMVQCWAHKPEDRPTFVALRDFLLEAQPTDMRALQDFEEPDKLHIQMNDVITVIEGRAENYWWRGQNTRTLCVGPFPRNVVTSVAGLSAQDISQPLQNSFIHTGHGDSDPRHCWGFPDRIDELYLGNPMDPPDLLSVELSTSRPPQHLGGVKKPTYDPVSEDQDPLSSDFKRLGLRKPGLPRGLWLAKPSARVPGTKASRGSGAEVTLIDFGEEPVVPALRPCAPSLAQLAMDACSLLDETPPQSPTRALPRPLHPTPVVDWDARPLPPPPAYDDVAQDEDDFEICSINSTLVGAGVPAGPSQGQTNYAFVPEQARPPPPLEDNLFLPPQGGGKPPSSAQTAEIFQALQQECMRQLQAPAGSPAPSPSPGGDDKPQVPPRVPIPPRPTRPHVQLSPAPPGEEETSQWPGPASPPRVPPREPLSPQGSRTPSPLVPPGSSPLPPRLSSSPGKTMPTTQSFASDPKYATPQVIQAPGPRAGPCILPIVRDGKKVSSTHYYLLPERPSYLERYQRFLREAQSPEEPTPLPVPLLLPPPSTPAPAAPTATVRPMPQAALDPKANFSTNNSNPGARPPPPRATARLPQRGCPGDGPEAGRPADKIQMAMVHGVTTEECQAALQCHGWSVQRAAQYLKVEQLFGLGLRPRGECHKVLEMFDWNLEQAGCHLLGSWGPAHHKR

In the case of `Cc1cc(F)c(C(=O)Nc2cccc(-c3nncn3C(C)C)n2)cc1-n1cnc(C2CC2)c1`, the % of control at Activated CDC42 kinase 1 came out at 98%; in test [1], 86%.
In test [2], `Cc1cnc(Nc2ccc(F)cc2Cl)nc1-c1c[nH]c(C(=O)N[C@H](CO)c2cccc(Cl)c2)c1` had a % of inhibition of 4%.
In test [3], `CC[C@@H]1[C@H](F)C(=O)N[C@@H]1COc1nccc2cc(C(N)=O)c(OC)cc12` [ZIMLOVISERTIB] returned a % of inhibition of 2%.
Regarding `C=CC(=O)Nc1cc(-n2c(=O)ccc3cnc4ccc(-c5ccc(NS(C)(=O)=O)cc5)cc4c32)ccc1C`, the % of control came out at 52% in test [4] (at 1 µM) and 43% in test [4] (at 10 µM).
As to `CN(C)CCOc1ccc(-c2nc(-c3ccncc3)c(-c3ccc4c(c3)CC/C4=N\O)[nH]2)cc1`, the % of control in test [5] stood at 45%.
